Experimental findings from US10793553B2, “TLR7/8 antagonists and uses thereof” (Merck Patent GmbH, priority 2017, dated 2020) are described below.

Structures are written as SMILES. Where only a bound is given, the exact number is not on record here.

Test [1] deals with T1, TLR7 (Homo sapiens, UniProt Q9NYK1).
T1 construct: expressed in transfected cells; host or cells: HEK cells carrying TLR7 and an NFkB luciferase reporter
T1 sequence (Q9NYK1 27-1049): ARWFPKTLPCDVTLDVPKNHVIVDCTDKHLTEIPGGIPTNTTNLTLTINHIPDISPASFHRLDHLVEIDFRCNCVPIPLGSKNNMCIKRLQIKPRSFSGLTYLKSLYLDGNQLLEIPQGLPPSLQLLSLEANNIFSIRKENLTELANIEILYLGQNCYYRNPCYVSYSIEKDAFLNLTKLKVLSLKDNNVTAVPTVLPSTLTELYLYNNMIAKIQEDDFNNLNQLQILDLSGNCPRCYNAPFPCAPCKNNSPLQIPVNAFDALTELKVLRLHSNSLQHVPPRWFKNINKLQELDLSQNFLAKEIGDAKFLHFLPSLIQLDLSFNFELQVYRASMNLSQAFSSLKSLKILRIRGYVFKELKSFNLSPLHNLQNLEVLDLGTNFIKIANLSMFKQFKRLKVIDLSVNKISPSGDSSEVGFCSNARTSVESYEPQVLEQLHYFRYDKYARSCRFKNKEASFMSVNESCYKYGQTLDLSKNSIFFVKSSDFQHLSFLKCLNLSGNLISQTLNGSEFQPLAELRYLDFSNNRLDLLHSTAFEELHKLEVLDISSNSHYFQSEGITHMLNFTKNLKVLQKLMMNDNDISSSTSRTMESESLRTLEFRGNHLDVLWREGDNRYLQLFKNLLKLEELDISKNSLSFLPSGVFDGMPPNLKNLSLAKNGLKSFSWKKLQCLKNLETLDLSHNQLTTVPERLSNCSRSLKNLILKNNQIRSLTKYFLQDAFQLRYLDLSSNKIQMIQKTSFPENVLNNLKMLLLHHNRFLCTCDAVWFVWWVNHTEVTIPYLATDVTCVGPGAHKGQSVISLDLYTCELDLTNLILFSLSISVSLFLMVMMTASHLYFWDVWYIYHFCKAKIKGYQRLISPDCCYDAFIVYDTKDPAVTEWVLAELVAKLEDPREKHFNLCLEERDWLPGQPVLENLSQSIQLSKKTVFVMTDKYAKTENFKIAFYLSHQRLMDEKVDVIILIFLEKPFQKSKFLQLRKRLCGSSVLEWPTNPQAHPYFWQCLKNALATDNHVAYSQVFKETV
Kind of test: HEK TLR7 Cell Assay. The class given is cell-based. Particulars: TLR7/NFKb HEK cells, R848 agonist 10 uM final, Steady-Glo readout. As to the method:
Example 24: HEK TLR7 Cell Assay
(§1) Into 384 CulturePlates (Corning 3707) was placed 5000 c/w of TLR7/NFKb HEK cells in 30 uL DMEM without Phenol red (gibco #31053) and 10% FCS-HI, 2 mM L-Glutamine, 1% Pen/Strept. The cells are incubated for 24 h at 37 degrees Celsius, and 10% carbon dioxide. Dispense 3 uL of controls, standards, and compounds to wells, incubate for 30 min then add 3 uL of R848 (10 uM final concentration) agonist in 20 mM Hepes. Incubate for 5 hours and then allow to stand at room temperature for 15 min. Add 10 uL of Steady-Glo substrate reagent and shake assay plate for 5 min at 1500 rpm. Let the assay plate sit for 30 min at room temperature and then read plate on EnVision.

Test [2] concerns the target T2, TLR8 (Homo sapiens, UniProt Q9NR97).
T2 construct: expressed in transfected cells; host or cells: HEK cells carrying TLR8 and an NFkB luciferase reporter
T2 sequence (Q9NR97 27-1041): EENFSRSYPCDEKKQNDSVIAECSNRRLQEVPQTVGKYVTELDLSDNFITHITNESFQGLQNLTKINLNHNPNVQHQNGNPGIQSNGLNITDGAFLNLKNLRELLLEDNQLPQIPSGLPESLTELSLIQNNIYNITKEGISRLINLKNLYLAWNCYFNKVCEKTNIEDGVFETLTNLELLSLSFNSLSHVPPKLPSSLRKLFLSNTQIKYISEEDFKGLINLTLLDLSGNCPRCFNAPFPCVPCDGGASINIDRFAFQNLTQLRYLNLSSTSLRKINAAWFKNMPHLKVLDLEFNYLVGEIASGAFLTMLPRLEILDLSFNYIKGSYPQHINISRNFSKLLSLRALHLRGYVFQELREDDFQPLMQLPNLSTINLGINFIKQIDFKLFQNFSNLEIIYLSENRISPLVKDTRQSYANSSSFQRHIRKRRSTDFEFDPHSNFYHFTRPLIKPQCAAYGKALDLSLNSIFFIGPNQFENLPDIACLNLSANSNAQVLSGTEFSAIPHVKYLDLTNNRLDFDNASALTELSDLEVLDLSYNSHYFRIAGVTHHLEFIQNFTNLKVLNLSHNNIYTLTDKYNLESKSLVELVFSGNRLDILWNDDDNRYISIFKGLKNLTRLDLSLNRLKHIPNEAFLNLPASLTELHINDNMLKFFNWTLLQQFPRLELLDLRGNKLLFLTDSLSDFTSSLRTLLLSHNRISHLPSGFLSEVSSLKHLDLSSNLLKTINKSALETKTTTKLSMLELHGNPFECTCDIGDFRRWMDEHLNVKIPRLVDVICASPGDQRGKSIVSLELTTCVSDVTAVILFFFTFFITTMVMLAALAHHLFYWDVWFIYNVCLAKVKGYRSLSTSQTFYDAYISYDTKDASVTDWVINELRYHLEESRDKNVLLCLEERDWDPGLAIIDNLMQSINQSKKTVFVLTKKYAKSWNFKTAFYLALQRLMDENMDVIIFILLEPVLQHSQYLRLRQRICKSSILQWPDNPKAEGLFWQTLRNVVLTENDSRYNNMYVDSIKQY
Kind of test: HEK TLR8 Cell Assay. Particulars: TLR8/NFKb HEK cells, R848 agonist 30 uM final, Steady-Glo readout. The format is cell-based. As for the experimental part: Example 25: HEK TLR8 Cell Assay
as §1, with “TLR8/NFKb” for “TLR7/NFKb”, “(30” for “(10”

For orientation: IC50 means the concentration at which inhibition is half-maximal. Lower therefore signals greater potency. `C[C@@H]1CN(c2ccc(C#N)c3nccnc23)C[C@@H]1N` [Compound 1, 8-[(3R,4R)-3-amino-4-methylpyrrolidin-1-yl]quinoxaline-5-carbonitrile]: the IC50 in test [1] was less than 1000 nM; in test [2] it was 1000 to 10000 nM.
In the case of `C[C@@H]1CN(c2ccc(C#N)c3nccnc23)C[C@@H]1NC(=O)CC1CCN(C)CC1` [Compound 2, N-[(3R,4R)-1-(8-cyanoquinoxalin-5-yl)-4-methylpyrrolidin-3-yl]-2-(1-methylpiperidin-4-yl)acetamide], the IC50 in test [1] and in test [2] was less than 1000 nM in each case.
For `C[C@@H]1CN(c2ccc(C#N)c3nccnc23)C[C@@H]1NC(=O)CN1CCOCC1` [Compound 7, N-[(3R,4R)-1-(8-cyanoquinoxalin-5-yl)-4-methylpyrrolidin-3-yl]-2-(morpholin-4-yl)acetamide], the half-maximal inhibitory concentration (IC50) in test [1] and in test [2] was 1000 to 10000 nM each time.
Regarding `C[C@@H]1CN(c2ccc(C#N)c3nccnc23)C[C@@H]1NC(=O)CC1(C)CCN(C)CC1` [Compound 8, N-[(3R,4R)-1-(8-cyanoquinoxalin-5-yl)-4-methylpyrrolidin-3-yl]-2-(1,4-dimethylpiperidin-4-yl)acetamide], the half-inhibitory concentration (IC50) in test [1] and in test [2] was less than 1000 nM throughout.
Take `C[C@@H]1CN(c2ccc(C#N)c3nccnc23)C[C@@H]1NC(=O)CC1(F)CCNCC1` [Compound 9, N-[(3R,4R)-1-(8-cyanoquinoxalin-5-yl)-4-methylpyrrolidin-3-yl]-2-(4-fluoropiperidin-4-yl)acetamide]: the IC50 in test [1] and in test [2] was less than 1000 nM in each case.
Consider `C[C@@H]1CN(c2ccc(C#N)c3nccnc23)C[C@@H]1NC(=O)CC1(F)CCN(C)CC1` [Compound 10, N-[(3R,4R)-1-(8-cyanoquinoxalin-5-yl)-4-methylpyrrolidin-3-yl]-2-(4-fluoro-1-methylpiperidin-4-yl)acetamide], for which the IC50 in test [1] and in test [2] was less than 1000 nM in each case.
For `CC(C)[C@H](O)C(=O)N[C@H]1CN(c2ccc(C#N)c3nccnc23)C[C@H]1C` [Compound 15, (2S)—N-[(3R,4R)-1-(8-cyanoquinoxalin-5-yl)-4-methylpyrrolidin-3-yl]-2-hydroxy-3-methylbutanamide], the 50% inhibitory concentration (IC50) in test [1] and in test [2] was 1000 to 10000 nM in each case.
Take `CC(C)[C@@H](O)C(=O)N[C@H]1CN(c2ccc(C#N)c3nccnc23)C[C@H]1C` [Compound 16, (2R)—N-[(3R,4R)-1-(8-cyanoquinoxalin-5-yl)-4-methylpyrrolidin-3-yl]-2-hydroxy-3-methylbutanamide]: the IC50 in test [1] and in test [2] was 1000 to 10000 nM each time.
For the compound `C[C@@H]1CN(c2ccc(C(F)(F)F)c3ncccc23)C[C@@H]1N` [Compound 17, (3R,4R)-4-methyl-1-[8-(trifluoromethyl)quinolin-5-yl]pyrrolidin-3-amine], the IC50 in test [1] was 1000 to 10000 nM; in test [2], more than 10000 nM.
`C[C@@H]1CN(c2ccc(C(F)(F)F)c3ncccc23)C[C@@H]1NC(=O)CC1CCN(C)CC1` [Compound 18, N-[(3R,4R)-4-methyl-1-[8-(trifluoromethyl)quinolin-5-yl]pyrrolidin-3-yl]-2-(1-methylpiperidin-4-yl)acetamide]: the 50% inhibitory concentration (IC50) in test [1] and in test [2] was less than 1000 nM each time.
Turning to `C[C@@H]1CN(c2ccc(C(F)(F)F)c3ncccc23)C[C@@H]1NC(=O)CN1CCOCC1` [Compound 23, N-[(3R,4R)-4-methyl-1-[8-(trifluoromethyl)quinolin-5-yl]pyrrolidin-3-yl]-2-(morpholin-4-yl)acetamide], the IC50 is 1000 to 10000 nM in test [1] and more than 10000 nM in test [2].
As to `C[C@@H]1CN(c2ccc(C(F)(F)F)c3ncccc23)C[C@@H]1NC(=O)CC1(C)CCN(C)CC1` [Compound 24, 2-(1,4-dimethylpiperidin-4-yl)-N-[(3R,4R)-4-methyl-1-[8-(trifluoromethyl)quinolin-5-yl]pyrrolidin-3-yl]acetamide], the IC50 in test [1] and in test [2] was less than 1000 nM each time.
Turning to `C[C@@H]1CN(c2ccc(C(F)(F)F)c3ncccc23)C[C@@H]1NC(=O)CC1(F)CCNCC1` [Compound 25, 2-(4-fluoropiperidin-4-yl)-N-[(3R,4R)-4-methyl-1-[8-(trifluoromethyl)quinolin-5-yl]pyrrolidin-3-yl]acetamide], the IC50 in test [1] and in test [2] was less than 1000 nM throughout.
Turning to `C[C@@H]1CN(c2ccc(C(F)(F)F)c3ncccc23)C[C@@H]1NC(=O)CC1(F)CCN(C)CC1` [Compound 26, 2-(4-fluoro-1-methylpiperidin-4-yl)-N-[(3R,4R)-4-methyl-1-[8-(trifluoromethyl)quinolin-5-yl]pyrrolidin-3-yl]acetamide], the IC50 in test [1] and in test [2] was less than 1000 nM in each case.
As for `CC(C)[C@H](O)C(=O)N[C@H]1CN(c2ccc(C(F)(F)F)c3ncccc23)C[C@H]1C` [Compound 31, (2S)-2-hydroxy-3-methyl-N-[(3R,4R)-4-methyl-1-[8-(trifluoromethyl)quinolin-5-yl]pyrrolidin-3-yl]butanamide], the IC50 in test [1] is 1000 to 10000 nM; in test [2] it was more than 10000 nM.
Taken in the same sequence, the figures for `CC(C)[C@@H](O)C(=O)N[C@H]1CN(c2ccc(C(F)(F)F)c3ncccc23)C[C@H]1C` [Compound 32, (2R)-2-hydroxy-3-methyl-N-[(3R,4R)-4-methyl-1-[8-(trifluoromethyl)quinolin-5-yl]pyrrolidin-3-yl]butanamide] were more than 10000 nM and more than 10000 nM.
As to `Cc1ccc(N2C[C@@H](C)[C@@H](N)C2)c2cccnc12` [Compound 33, (3R,4R)-4-methyl-1-(8-methylquinolin-5-yl)pyrrolidin-3-amine], the IC50 in test [1] and in test [2] was more than 10000 nM in each case.
